In the assay the test system is Chlamydomonas reinhardtii, Nile Red lipid fluorescence, 72 h. The assay is described as follows: algal triacylglycerol accumulation inducers, dose response, qHTS, Chlamydomonas reinhardtii (AID 1159536). In general terms: Quantitative high-throughput screening tests each substance at several concentrations.

Among the data in PubChem BioAssay AID1159536 (DiRusso Lab, Biochemistry Department, University of Nebraska, 2015) are EC50 values, retold here.

As a reminder, the EC50 is the concentration that produces a half-maximal response.

Records with an inconclusive call do not appear. Calls of active or inactive are those of the source. No rule for the calls is given here.

As to `OC(COc1ccccc1Br)CN1CCCCC1` (stereo not drawn), the EC50 was 7570 nM. As to `COc1cccc(NC2=C(N(C)C)C(=O)c3ccccc3C2=O)c1`, the EC50 was 1870 nM (inactive). Consider `O=C(Nc1ccc(Br)cc1)c1ccccc1Cl`, for which the EC50 is 9960 nM.

With `O=[N+]([O-])c1ccc(CN2CCN(C3CC4CCC3C4)CC2)cc1` (stereo not drawn), the 50% effective concentration (EC50) was 2530 nM. Next, `NC(=O)c1cc(-c2ccccc2)sc1NC(=O)c1ccc(OC(F)F)cc1`: 155 nM; `Clc1ccc(OCCCN2CCOCC2)c(Br)c1`: 10500 nM; `Clc1ccc(OCCOCCN2CCCC2)c(Br)c1`: 2600 nM. In the case of `CN1CC=C(CNc2cccc3c2CCCC3)CC1` it was 2580 nM; in that of `Clc1cc(Br)ccc1OCCCCN1CCOCC1`, 1310 nM. In the case of `CCC(C)c1ccc(OCCN2CCCC2)cc1` (stereo not drawn) it was 5160 nM. Consider `C=CCn1c(SCC(=O)O)nnc1-c1ccc([N+](=O)[O-])cc1`, for which the EC50 was 13600 nM (inactive). Next, `CCN(Cc1ccccc1)C(=O)C1CCN(CCCc2ccccc2)CC1`: 1300 nM; `COc1ccccc1N1CCN(C2CCN(Cc3cccc(Cl)c3)CC2)CC1`: 10100 nM; `O=[N+]([O-])c1ccccc1CN1CCN(CC2CC3C=CC2C3)CC1` (stereo not drawn): 11700 nM (inactive). In the case of `Cc1c(NC(=O)COc2ccc(Br)cc2)cccc1[N+](=O)[O-]` it was 1370 nM (inactive); in that of `CC(CCc1ccc(O)cc1)NC1C2CC3CC(C2)CC1C3` (stereo not drawn), 2740 nM; in that of `O=C(Nc1ccc([N+](=O)[O-])cc1)c1ccccc1Cl`, 5110 nM.

Take `CCC(C)c1ccccc1OCCCN1CCOCC1` (stereo not drawn): the EC50 was 3720 nM. Turning to `CCc1ccc(CN2CCN(CCO)CC2)cc1`, the EC50 is 7630 nM. For `O=[N+]([O-])c1ccc(CN2CCN(Cc3ccccc3)CC2)cc1`, the EC50 was 6260 nM. Next, `CC1(C)Oc2ccc(NC(=O)c3ccc(C(=O)c4ccccc4)cc3)cc2O1`: 8940 nM (inactive); `O=C1CC(N2CCN(Cc3ccc4c(c3)OCO4)CC2)C(=O)N1CCc1ccccc1` (stereo not drawn): 2630 nM; `N#Cc1c(-n2ncnc2-c2cccnc2)sc2c1CCCCC2`: 2470 nM (inactive).

Take `Cc1ccc(C(=O)Nc2ccc(Cl)cc2C)cc1C`: the EC50 was 16600 nM (inactive). In the case of `Brc1ccc2ncnc(N3CCN(Cc4ccccc4)CC3)c2c1`, the EC50 was 2020 nM. Next, `Cc1cc(C)c(C)c(OCCCCN2CCOCC2)c1`: 15100 nM; `CCc1ccc(OCCOCCN2CCOCC2)cc1`: 10100 nM; `Clc1ccc(OCCOCCN2CCOCC2)c(Br)c1`: 7900 nM. With `C=CCc1cc(Cl)ccc1OCCN1CCN(C)CC1`, the EC50 was 14100 nM. In the case of `O=C(c1ccc([N+](=O)[O-])cc1)N1CCN(CC2CC3C=CC2C3)CC1` (stereo not drawn) it was 6070 nM.

With `Cc1cc(Br)ccc1OCCOCCN1CCOCC1`, the EC50 was 7810 nM.

With `CSc1ccc(CN2CCSCC2)cc1`, the EC50 is 10500 nM (inactive).

As to `Nc1ccc(C(=O)Nc2ccc(Cl)cc2Cl)cc1`, the EC50 is 1490 nM. In the case of `Cc1ccc(C(=O)c2ccc(N3CCN(C)CC3)c(F)c2)cc1C` it was 13400 nM (inactive). Consider `CCC(C)c1ccc(OCCCN2CCN(C)CC2)cc1` (stereo not drawn), for which the EC50 is 902 nM. As to `Cc1ccc(OCCCCN2CCCCC2)c(C)c1`, the EC50 is 11300 nM. In the case of `O=S(=O)(c1ccc(F)cc1)N1CCN(C2CCCCC2)CC1` it was 10200 nM. In the case of `CCC(CC)C(=O)Nc1ccc(C(=O)Nc2nccs2)cc1` it was 1830 nM (inactive); in that of `COCCNS(=O)(=O)c1cc(Cl)ccc1OC`, 2980 nM (inactive). For the compound `O=C(Nc1ccc(S(=O)(=O)N2CCCC2)cc1)c1ccc(Cl)cc1Cl`, the EC50 is 2320 nM (inactive). In the case of `COc1ccc(CN2CCN(c3ncnc4sc5c(c34)CCCC5)CC2)cc1` it was 4840 nM; in that of `O=C(CN1CCCCC1)Nc1ncc(Cc2ccc(F)cc2)s1`, 58.5 nM (inactive); in that of `Oc1ccc(Br)cc1CN1CCC(N2CCOCC2)CC1`, 22800 nM.

For `Cc1ccc(CN2CCN(c3ccc(F)cc3)CC2)cc1`, the EC50 was 4.39 nM. On to `c1ccc(CN2CCN(C3CCCCC3)CC2)cc1`, for which the EC50 was 9900 nM.

`Cc1ccc(OCC(O)CN(C)C2CCCCC2)cc1C` (stereo not drawn): the EC50 is 4420 nM. Next, `Clc1ccc(N2CCN(Cc3ccc4c(c3)OCO4)CC2)cc1`: 1320 nM.

For `c1cc2c(cc1CNC1CCCC1)OCO2`, the concentration giving a half-maximal response (EC50) is 10700 nM.

On to `CC(C)NC(=O)c1ccccc1NC(=O)c1ccc(Br)cc1`, for which the EC50 was 1010 nM. `CCOc1ccc(C2=CSC3=NCCN23)cc1`: the EC50 was 13700 nM (inactive). Regarding `C(=C\c1ccccc1)/CN1CCN(CC2CCCCC2)CC1`, the EC50 is 644 nM. Next, `Cc1ccccc1N1CCN(Cc2ccc(O)cc2)CC1`: 10000 nM; `O=C(Nc1ccc(Cc2ccncc2)cc1)c1cc(Br)ccc1Cl`: 2290 nM (inactive); `CCc1ccc(CN2CCC(C(=O)N(CC)Cc3ccccc3)CC2)cc1`: 708 nM. Next, `CCOc1ccc(CN2CCN(c3ccccc3C)CC2)cc1`: 1300 nM; `Clc1ccc(N2CCN(Cc3ccsc3)CC2)cc1`: 1270 nM. In the case of `COc1ccc(CN2CCN(Cc3ccc([N+](=O)[O-])cc3)CC2)cc1OC` it was 2490 nM. In the case of `COc1ccc(C(=O)NCCN2CCOCC2)cc1[N+](=O)[O-]`, the EC50 is 5990 nM (inactive). Consider `COc1ccc(CN2CCN(C/C=C/c3ccccc3)CC2)cc1`, for which the EC50 is 6560 nM. Next, `CCCCOc1ccc(CN2CCN(c3ccc([N+](=O)[O-])cc3)CC2)cc1`: 2700 nM; `Cc1ccc(N2CCN(C3CCCCCC3)CC2)cc1`: 649 nM. In the case of `Cc1cccc(OCCCCN2CCOCC2)c1` it was 2690 nM; in that of `Oc1ccccc1CNCCC12CC3CC(CC(C3)C1)C2`, 2490 nM (inactive).

As for `CCN(CC(O)COc1ccc(Br)cc1)C1CCCCC1` (stereo not drawn), the EC50 was 10200 nM. Next, `O=C1CC(N2CCC(C(O)(c3ccccc3)c3ccccc3)CC2)C(=O)N1c1ccc(F)cc1` (stereo not drawn): 13600 nM (inactive). For `CC(=O)N(C1=C(N(C)C)C(=O)c2ccccc2C1=O)c1ccc(Cl)c(Cl)c1`, the EC50 was 2650 nM (inactive). Consider `C=CCc1cccc(C)c1OCCCN1CCN(C)CC1`, for which the EC50 was 1970 nM.

For the compound `CC1(C)CC(NC(=O)Cc2ccccc2[N+](=O)[O-])CC(C)(C)N1`, the EC50 was 10300 nM (inactive). On to `O=S(=O)(c1ccc(Cl)c(Cl)c1Cl)N1CCN(c2ccc(F)cc2)CC1`, for which the EC50 is 14.4 nM (inactive). Consider `O=[N+]([O-])c1ccc(OCCCCN2CCOCC2)cc1`, for which the EC50 is 14200 nM. In the case of `COc1ccc(CNC2CCCC(C)C2)cc1` (stereo not drawn), the EC50 is 7060 nM. Next, `Clc1cc(Br)ccc1OCCCN1CCOCC1`: 4430 nM; `Cc1cc(C(C)(C)C)ccc1OCCN1CCN(C)CC1`: 4430 nM. In the case of `Cc1cc(Cl)cc(C)c1OCCn1ccnc1` it was 1290 nM; in that of `O=C(Nc1ccccc1C(=O)Nc1ccccc1Cl)c1ccncc1`, 9550 nM; in that of `COc1ccc(C(=O)c2ccc(N3CCN(C)CC3)c([N+](=O)[O-])c2)cc1`, 1270 nM (inactive). Next, `CCN1CCN(C2CCC(C)CC2)CC1` (stereo not drawn): 9970 nM; `Cc1cc(OCCN2CCN(C)CC2)ccc1C(C)C`: 2560 nM; `Nn1c(SCC(=O)NC23CC4CC(CC(C4)C2)C3)nnc1-c1ccc(Cl)cc1Cl`: 7040 nM. Take `CN(CCc1ccccc1)C1CCN(Cc2ccccc2)CC1`: the EC50 is 21.8 nM. Next, `CN(Cc1ccc([N+](=O)[O-])cc1)C1CCCCC1`: 87.8 nM. Regarding `COc1cc(C)c(CN2CCN(Cc3ccc4c(c3)OCO4)CC2)cc1C`, the EC50 was 2040 nM. As for `COc1ccc(CN(C)C2CCCCC2)c(C)c1C`, the EC50 was 608 nM. On to `COc1ccc(NC(=O)CCC2CCCCC2)c([N+](=O)[O-])c1`, for which the EC50 is 6820 nM. In the case of `COc1ccc(CN(C)C2CCCCC2)cc1`, the EC50 was 2790 nM. In the case of `CCC1CCC(N2CCN(CC)CC2)CC1` (stereo not drawn) it was 2480 nM; in that of `COc1cc(C)nc(NCc2ccccc2)n1`, 1330 nM. Regarding `Cc1ccccc1OCCCCN1CCOCC1`, the EC50 is 9790 nM. As for `O=[N+]([O-])c1ccc(CN2CCN(Cc3cc(Br)ccc3O)CC2)cc1`, the EC50 is 2470 nM. For the compound `Clc1ccccc1-c1nnc(-c2ccccc2)o1`, the EC50 is 2700 nM. Turning to `CN1CCN(Cc2cccc(Oc3ccccc3)c2)CC1`, the half-maximal effective concentration (EC50) was 9980 nM.

`C1=CC2CC1CC2CN1CCN(c2ccccc2)CC1` (stereo not drawn): the concentration giving a half-maximal response (EC50) is 84.6 nM. On to `CN(C)c1ccc(NC(=O)Nc2ccc3nc(-c4ccccn4)c(-c4ccccn4)nc3c2)cc1`, for which the EC50 is 1330 nM.

As for `COc1ccc(CCN(C)Cc2ccc([N+](=O)[O-])cc2)cc1OC`, the EC50 is 10000 nM.

In the case of `c1ccc(N2CCN(Cc3ccsc3)CC2)cc1`, the EC50 was 652 nM. Next, `CC(=O)NC1=C(N2CCN(Cc3ccccc3)CC2)C(=O)c2ccccc2C1=O`: 14300 nM (inactive). `Cc1ccc(C)c(N2CCN(C3CCCCCC3)CC2)c1`: the EC50 is 10000 nM. As to `CCOc1ccc(CN2CCN(c3ccc(F)cc3)CC2)cc1`, the EC50 is 241 nM. Next, `C=C(C)CN(CC)C(=O)C1CCN(CC2CC=CCC2)CC1` (stereo not drawn): 2730 nM; `CC(C)NC(=O)c1ccccc1NC(=O)c1ccc(Cl)cc1`: 590 nM (inactive); `Cc1ccc(C)c(N2CCN(C3CCc4ccccc4C3)CC2)c1` (stereo not drawn): 16700 nM. On to `CC1CCCN(C(=O)COc2ccc(Cl)cc2)C1` (stereo not drawn), for which the EC50 is 1260 nM. In the case of `O=[N+]([O-])c1cccc(CNC2CCCCCC2)c1` it was 1100 nM. Take `C1=CC2CC1CC2CN1CCN(C2CCC(c3ccccc3)CC2)CC1` (stereo not drawn): the EC50 was 1460 nM. `Cc1ccc(C(C)C)cc1OCCCCN1CCOCC1`: the EC50 was 4010 nM. In the case of `CCN(CC)CC#Cc1ccc(C#CCN(CC)CC)cc1` it was 4150 nM.

Take `O=[N+]([O-])c1ccccc1S(=O)(=O)N1CCN(C2CCN(Cc3ccccc3)CC2)CC1`: the EC50 is 10700 nM.

On to `O=C(C1COc2ccccc2O1)N1CCN(Cc2ccccc2)CC1` (stereo not drawn), for which the EC50 was 10600 nM.
